In US20260166150A1, “CRYSTAL FORM OF NK3R ANTAGONIST, AND PREPARATION METHOD THEREFOR AND USE THEREOF” (CHANGCHUN GENESCIENCE PHARMACEUTICAL CO., LTD., priority 2022, published 2026):

Experiments:
human NK-3 receptor = target: T1, human NK-3 receptor (Homo sapiens, UniProt P29371); experiment: Antagonistic activity on human NK-3 receptor, FLIPR calcium assay in stably transfected human NK-3R/HEK293 cells; type: cell-based
T1 construct: expressed in transfected cells; host or cells: HEK293 (stably transfected human NK-3R/HEK293)
T1 sequence (P29371 1-465): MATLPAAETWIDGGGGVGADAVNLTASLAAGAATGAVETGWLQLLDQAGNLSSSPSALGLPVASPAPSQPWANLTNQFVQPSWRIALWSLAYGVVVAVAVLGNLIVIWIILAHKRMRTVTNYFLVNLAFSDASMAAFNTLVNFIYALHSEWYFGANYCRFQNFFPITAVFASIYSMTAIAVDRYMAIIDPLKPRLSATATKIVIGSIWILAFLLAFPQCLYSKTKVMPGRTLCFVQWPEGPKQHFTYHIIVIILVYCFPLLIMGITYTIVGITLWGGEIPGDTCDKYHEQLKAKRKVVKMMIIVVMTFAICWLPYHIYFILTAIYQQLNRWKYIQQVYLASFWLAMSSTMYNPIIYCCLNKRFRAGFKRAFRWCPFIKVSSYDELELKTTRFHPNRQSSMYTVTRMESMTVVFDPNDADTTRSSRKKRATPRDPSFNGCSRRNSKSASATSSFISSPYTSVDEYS

[1] = Solid-state stability evaluation (open storage, XRPD and HPLC); type: physicochemical
Method: Waters H-Class ultra performance liquid chromatograph is used to collect solubility and purity data of the items.
An appropriate amount of sample was weighed, kept open at 60° C. for 1 day, as well as kept open at 25° C./60% RH and kept open at 40° C./75% RH for 1 week and 4 weeks respectively. Then, the sample was characterized by XRPD and HPLC to detect changes in the crystal form and chemical purity.

[2] = DVS hygroscopicity test at 25° C.; type: physicochemical
Method: • DVS curve is collected on DVS Intrinsic of SMS (Surface Measurement Systems) Relative humidity at 25° C. is calibrated based on deliquescent points of LiCl, Mg(NO3)2, and KCl. • Temperature: 25° C.; • Sample amount: 10-20 mg; • Protecting gas and flow rate: N2, 200 mL/min; • dm/dt: 0.002%/min; • Minimum dm/dt equilibration time: 10 min; • Maximum equilibration time: 180 min; • RH range: 0% RH-95% RH-0% RH; • RH gradient: 10% RH (0% RH-90% RH & 90% RH-0% RH); 5% RH (90% RH-95% RH & 95% RH-90% RH)

| NK-3 receptor antagonism (in words) (human NK-3 receptor; conclusion from IC50 data) | IC50 (human NK-3 receptor; human NK-3R/HEK293 cells, agonist Neurokinin B, FLIPR) [nM] | HPLC Relative purity % ([1]; 25° C./60% RH, 1 week, open) [%] | HPLC purity Area % ([1]; 25° C./60% RH, 1 week, open) [%] | HPLC Relative purity % ([1]; 25° C./60% RH, 4 weeks, open) [%] | HPLC purity Area % ([1]; 25° C./60% RH, 4 weeks, open) [%] | HPLC Relative purity % ([1]; 40° C./75% RH, 1 week, open) [%] | HPLC purity Area % ([1]; 40° C./75% RH, 1 week, open) [%] | HPLC Relative purity % ([1]; 40° C./75% RH, 4 weeks, open) [%] | HPLC purity Area % ([1]; 40° C./75% RH, 4 weeks, open) [%] | change of purity after storage ([1]; 60° C. 1 day, 25° C./60% RH and 40° C./75% RH, 1 week and 4 weeks, open) | HPLC Relative purity % ([1]; 60° C., 1 day, open) [%] | HPLC purity Area % ([1]; 60° C., 1 day, open) [%] | physicochemical stability (in words) ([1]; all evaluated storage conditions) | moisture adsorption ([2]; 25° C./80% RH, DVS) | hygroscopicity (in words) ([2]; DVS, 25° C.) | crystal form before and after DVS testing (XRPD) ([2]; XRPD before and after DVS) | Structure (SMILES) |
| --- | --- | --- | --- | --- | --- | --- | --- | --- | --- | --- | --- | --- | --- | --- | --- | --- | --- |
| potent NK-3 receptor antagonist | 12.1 | – | – | – | – | – | – | – | – | – | – | – | – | – | – | – | Cc1nsc(-c2nc(N3CCCC3=O)c3n2CCN(C(=O)c2ccc(F)cc2)[C@@H]3C)n1 [Compound represented by formula (I), (R)-1-(7-(4-fluorobenzoyl)-8-methyl-3-(3-methyl-1,2,4-thiadiazol-5-yl)-5,6,7,8-tetrahydroimidazo[1,5-a]pyrazin-1-yl)pyrrolidin-2-one] |
| – | – | 99.9 | 99.48 | 99.9 | 99.45 | 99.9 | 99.49 | 99.9 | 99.49 | < 0.2 %, area % | 99.9 | 99.49 | good physicochemical stability | about 0.15% | almost non-hygroscopic | did not change in the crystal form | Cc1nsc(-c2nc(N3CCCC3=O)c3n2CCN(C(=O)c2ccc(F)cc2)[C@@H]3C)n1 [Crystal form A of free base, (R)-1-(7-(4-fluorobenzoyl)-8-methyl-3-(3-methyl-1,2,4-thiadiazol-5-yl)-5,6,7,8-tetrahydroimidazo[1,5-a]pyrazin-1-yl)pyrrolidin-2-one] |
